For 1 molecule, control of algae results are on record in patent publication US20090069181A1, “Product and Process for Treating Water Bodies, Sediments and Soils” (SOLVAY SA, priority 2006, published 2009).

The experiment deals with blue green algae. Description: Pond treatment, algae control in a four-foot deep pond (Example 1). It counts as in vivo. As to conditions: treated every two weeks for approximately 6 years during the warmer season. The text has this: The solid form of this invention containing approximately 70% calcium peroxide was applied to the pond by spreading it over the surface at a rate of 10 lbs per acre foot.

Each structure is given as a SMILES string.

As for `O=S(=O)([O-])[O-].[Cu+2]` [copper sulfate], the control of algae entry is recorded as “control of algae was still difficult”.
